{"source": "patent US10654890B2", "about": "“Cyclic peptide derivative, method for preparing same and composition thereof” (priority 2014, dated 2020)", "key": {"[1]": {"tested_on": "culture astrocyte", "assay": "Astrocyte proliferative activity test (BrdU cell proliferation ELISA)", "format": "cell-based, mouse", "procedure": "A pregnant ICR female mouse was purchased from Japan SLC, Inc., and a neonatal mouse 24 to 48 after birth was used for the test.\nA neonatal ICR mouse (24 to 48 after birth) was sufficiently sterilized with 70% ethanol, immersed in 30 ml of PBS (−) in a 100 mm dish (diameter of 100 mm, Orange Scientific) for cell culture, and then placed in a clean bench. The neonatal mouse was subjected to cervical dislocation using tweezers and euthanized. Head of the neonatal mouse was open and the entire brain was removed. The obtained brain was transferred to a 100 mm dish for cell culture in which 15 ml of high glucose Dulbecco's modified Eagle medium (HG-D-MEM, Wako Pure Chemical Industries, Ltd.) is added. By using tweezers, the olfactory bulb, median eminence, and meninges were removed in the medium to obtain only a cerebrum having hippocampus. Subsequently, the obtained cerebrum was transferred to a 100 mm dish for cell culture added with 10 ml of HG-D-MEM, and using a scalpel, the cerebrum was finely cut to be 1 mm^2 or less. The cerebrum after cutting was transferred, together with the medium, to a 50 ml conical tube (TPP), and after allowing it to stand for 2 minutes, the supernatant was removed. Subsequently, the cerebrum after cutting was added with 4 ml of fresh HG-D-MEM, and after further adding 400 μl of 2.5% trypsin (SIGMA) and 40 μl of 1% DNase I (SIGMA), the cerebrum was incubated in a water bath at 37° C. for 10 minutes under intermittent stirring. Subsequently, to the cerebrum after cutting, 10 ml of HG-D-MEM (10% FBS) was added to terminate the reaction of trypsin followed by centrifuge for 3 minutes at 1,000×g using a centrifuge (H-9R, KOKUSAN Co., Ltd.). The supernatant was collected by an electric pipette, 10 ml of HG-D-MEM (10% FBS) was added to a precipitated cell mass, and pipetting using a sterile pipette was carried out several times until the cell mass is not observed. To remove the remaining cell mass from this cell dispersion, the cell dispersion was passed through a cell strainer (pore diameter of 100 μm, BD Falcon™), and the number of cells in the cell dispersion which has passed through the cell strainer was counted by using a cell counting plate. An adjustment was made with HG-D-MEM (10% FBS) such that the number of cells is 6.0×10^5 cells/ml. After the adjustment of the number of cells, the cell dispersion was seeded, in an amount of 7 ml for each, to a Poly-D-Lysine Cellware 100 mm Dish (PDL 100 mm dish, BD Falcon™). 96 Hours after the seeding, the medium was removed once using an aspirator, and after briefly washing the inside of a 100 mm PDL dish with 10 ml of PBS (−), the medium exchange was carried out by newly adding 7 ml of HG-D-MEM. The above method and the astrocyte preparation described below were carried out based on the method of McCarthy and de Vellis (1980, Non Patent Literature 30).\n72 Hours after the medium exchange, the 100 mm PDL dish seeded with the cell broth was removed from the incubator, and tightly covered using a parafilm and fixed by overlaying 3 to 4 dishes. The resultant was cultured by shaking using a bioshaker (MULTI SHAKER MMS, INCUBATOR FMS/EYELA) under a condition including 37° C., 100 rpm, and 20 hours, and the neuronal cells, cell debris, dead cells or the like were liberated. At that time, in the inside the 100 mm PDL dish, only the astrocyte as a glial cell in central nervous system other than neuron was adhered (hereinbelow, described as culture astrocyte). After the shaking, the 100 mm PDL dish was transferred to a clean bench, the supernatant was removed by an aspirator and washed with 10 ml of PBS (−), and after adding 1 ml of 2.5% trypsin (SIGMA) using a Pasteur pipette, the dish was left to stand in an incubator for 10 minutes. The 100 mm PDL dish was again brought back to the clean bench, and added with 10 ml of Dulbecco's modified Eagle medium (D-MEM, Wako Pure Chemical Industries, Ltd.) (10% FBS). […]"}, "[2]": {"tested_on": "VGF gene", "assay": "VGF gene expression in culture astrocyte (real time PCR)", "format": "cell-based, mouse", "details": "25 μM; from 8 hours to 24 hours after the addition; p<0.05 vs before the addition; calibrated to GAPDH", "procedure": "By adding the cyclic peptide derivative of 25 μM to an astrocyte of the secondary subculture, the influence on expression of the gene of NGF, GDNF, VFGF-A, BDNF, and VGF as a representative neurotrophic factor was determined over time.\nExcept that a cell suspension of an astrocyte of the secondary subculture was prepared to have cell concentration of 3×10^5 cells/ml and the time for exposing the astrocyte to the above 25 μM cyclic peptide derivative was set at 0, 1, 2, 4, 8, 12, and 24 hours, the astrocyte was cultured in the same order as above <6>. As a control group, LG-D-MEM (0% FBS) not added with any cyclic peptide derivative was used.\nEach astrocyte which has been exposed to the cyclic peptide derivative during each time described above was collected, and then, by using RNeasy Mini Kit (QIAGEN), extraction and purification of total RNA were carried out. The extracted total RNA was quantified by using Nano Photometer (IMPLEN). For the reverse transcription reaction, cDNA was synthesized by reacting 500 ng of total RNA with PrimeScript RT Master Mix (TaKaRa) at 37° C. for 15 minutes using GeneAmp PCR System 9600 (PERKIN ELMER), and the reaction was terminated by heating for 5 seconds at 85° C. […]"}}, "note": "Structures can show the parent of a compound that is named as a salt.", "data": [{"smiles": "CCC1(C)Oc2cc(ccc2O)C(O)C(NC)C(=O)NC(C(C)C)C(=O)NC1C(=O)NC(CCC(=O)O)C(=O)O", "note": "(stereo not drawn) [cyclic peptide derivative]", "values": [{"measurement": "astrocyte proliferation compared to the control group", "setting": "[1]; 25 μM, FIG. 7", "result": "about 12 times"}, {"measurement": "astrocyte proliferation accelerating activity", "setting": "[1]; 0.1, 1, 5, 10, 25, and 50 μM, 24 hours exposure, FIG. 6", "result": "observed with concentration dependency"}, {"measurement": "astrocyte proliferative activity", "setting": "[1]; extracts and fractions of the isolation and purification steps, listed as F3-10-4-5-3", "result": "significant astrocyte proliferative activity"}, {"measurement": "astrocyte proliferative activity", "setting": "[1]; extracts and fractions of the isolation and purification steps, listed as F-3-10-4-5-3", "result": "containing the components with an astrocyte proliferative activity"}, {"measurement": "expression of the gene of VGF", "setting": "[2]", "result": "increased"}]}, {"smiles": "COc1cc2c(cc1OC)C(=O)C(CC1CCN(Cc3ccccc3)CC1)C2", "note": "(stereo not drawn) [donepezil hydrochloride, reference compound]", "values": [{"measurement": "astrocyte proliferative activity", "setting": "[1]; 25 μM, FIG. 8 and FIG. 9", "result": "no significant astrocyte proliferative activity was observed"}]}]}
